Results from article PMC8233378, “Acyclic nucleoside phosphonates with adenine nucleobase inhibit Trypanosoma brucei adenine phosphoribosyltransferase in vitro” (Scientific Reports, 2021).
Counter-ions that a name gives are not always drawn. Like-named read-outs stand apart in the source and are kept apart here. Values belong to the compound of their own block, whether it stands above or below them.

Experiments:
[1] = target: recombinant T. brucei APRT1 (Trypanosoma brucei brucei, UniProt Q57V32); experiment: Inhibition of recombinant APRT1, continuous spectrophotometric assay (adenine to AMP, 256 nm); assay type: biochemical; conditions: recombinant APRT1 280 nM, 1 mM PRib-PP, 60 μM adenine, pH 8.4, 25 °C
Chain of recombinant T. brucei APRT1 (Q57V32 entry or part of it): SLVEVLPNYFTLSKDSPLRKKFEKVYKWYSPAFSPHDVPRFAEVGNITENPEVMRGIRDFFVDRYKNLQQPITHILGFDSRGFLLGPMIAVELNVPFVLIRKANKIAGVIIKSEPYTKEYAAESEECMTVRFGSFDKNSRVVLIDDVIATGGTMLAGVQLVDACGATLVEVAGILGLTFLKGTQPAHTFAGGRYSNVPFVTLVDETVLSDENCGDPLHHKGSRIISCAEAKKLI
Excerpt: To test if the newly synthesized ANPs with an adenine as a nucleobase can inhibit the activity of the APRT1 and APRT2, both enzymes were overexpressed in E. coli. […] First, we monitored the APRT1 enzyme activity by a continuous spectrophotometric assay measuring the conversion of adenine to AMP at 256 nm.
The T. brucei aprt1 and aprt2 genes were PCR amplified using oligonucleotides listed in Supplementary File S1, digested with BglII or BamHI and XhoI enzymes and ligated into the pSKB3 expression vector. The pSKB3 vector carries a 6 × His-tag and an AcTEV cleavage site upstream of BamHI restriction site. A BglII or BamHI restriction site was introduced at the 5′ end of the respective genes instead of the initiation methionine codon to maintain the 6 × His-tag and AcTEV recognition motif in frame with the genes. The verified plasmids were transformed into the BL21(DE3) E. coli cells. The 6xhis-tagged recombinant APRT1 protein was purified under native conditions using the ÄKTA prime plus instrument. Elution fractions were analyzed by SDS-PAGE, and those containing APRT1 were pooled and dialyzed against 50 mM Tris–HCl, pH 8.0, 150 mM NaCl, 5 mM MgCl2, 10% glycerol. Bradford protein assay (BioRad) was used to determine protein concentrations. The APRT1 recombinant protein was sent for antibody production to Davids Biotechnology (Regensburg, Germany). Recombinant APRT1 was subsequently used in all in vitro assays.
The methodology was adapted from Ref.[6]. Briefly, the enzyme kinetics of APRT1 were measured by a continuous spectrophotometric assay measuring the conversion of adenine to AMP, at 256 nm. The concentration of enzyme in the assay was 140 nM, the concentration of PRib-PP was kept at 1 mM and the adenine concentration varied from 3.75 to 60 μM. The reaction was carried out using a 1.0 cm path length with a UV Visible spectrometer 1601 (Shimadzu) in the reaction buffer (0.1 M Tris, pH 8.4; 0.11 M MgCl2; at 25 °C). The initial velocity (V0 [µM/min]) was calculated using Beer–Lambert law for different concentration of the purine substrate molecules: A = Δε × L × c where A is the measured absorbance, Δε is constant 2100 M^−1 cm^−1 for adenine, c is a concentration of the product formed in one minute (V0) and L is the length of a cuvette. The Km, Vmax and kcat values were calculated using GraphPad Prism 9 according to Michaelis–Menten kinetics. The Ki values of the inhibitors for APRT1 were determined in the same reaction buffer containing 1 mM PRib-PP, 60 μM adenine and 280 nM APRT1. The concentrations of inhibitors in the assay ranged from 1 nM to 100 μM, depending on the activity of the compound. The reaction was preceded by 1 min incubation of the respective enzyme with the given inhibitor. The Ki values were calculated using non-linear regression in GraphPad Prism 9.

[2] = system: T. brucei BSF427; experiment: Alamar Blue assay, BSF427 cells; assay type: cell-based; conditions: Trypanosoma brucei, read-out: T. brucei BSF EC50
Procedure: The bloodstream form (BSF) T. b. brucei Lister 427 and single marker (SM) strains were cultivated in HMI-11 medium and 10% FBS at 37 °C in a humidified atmosphere at 5% CO2[26]. HMI-11 medium containing dialyzed 10% FBS and only one defined source of the purine base, adenine, was used for selected experiments (50 μM, HMI-11^adenine). The SM cell line constitutively expressing ectopic T7 RNA polymerase and tetracycline repressor was used for the tetracycline-inducible expression of dsRNA and V5-tagged proteins. To generate SKD APRT1 and DKD APRT1/2 RNAi cell lines, the 524 bp and 537 bp fragments of the aprt-I (Tb927.7.1780) and aprt-II (Tb927.7.1790) open reading frames, respectively, were PCR amplified from T. brucei BSF427 genomic DNA with the oligonucleotides (Supplementary File S1). The APRT1 fragment was cloned into the p2T7-TABlue, while the APRT2 fragment was cloned into, into the p2T7-177 plasmid. The p2T7-TABlue plasmid containing the APRT1 fragment was electroporated to SM cells which were subjected to selection with hygromycin (5 µg/ml). Verified SKD APRT1 cell line was then transfected with Not-1 linearized p2T7-177 plasmid containing the APRT2 fragment and the resulting DKD APRT1/2 cell line was selected with phleomycin (2.5 µg/ml). For the inducible expression of V5-tagged APRT1 andAPRT2, the coding sequences of the respective genes were PCR amplified using oligonucleotides listed in Supporting Information S1. The obtained PCR fragments were cloned into the pT7_N-term-V5 vector[6] using BglII or BamHI and XbaI restriction enzymes. Plasmids were then transfected to SM BSF cells. The resulting transfectants were established in medium containing puromycin (0.1 µg/ml). The induction of the dsRNA or tagged proteins was triggered by the addition of 1 µg/ml of tetracycline into the medium.
An Alamar Blue Assay was performed in a 96-well plate format to screen for sensitivity of T. brucei BSF cells to ANPs as previously published. The EC50 values were calculated using non-linear regression in GraphPad Prism 9.

[3] = Cytotoxicity of the prodrug in human cells (CellTiter-Glo 2.0), NHDF; assay type: cell-based; conditions: human, normal human dermal fibroblasts (NHDF), NHDF
Procedure: (§1) Compound cytotoxicity was evaluated in Hela S3 cancer cells and non-tumor human dermal fibroblasts (NHDF). All cell lines were obtained from ATCC (Manassas, VA, USA). The cytotoxicity was assayed using CellTiter-Glo® 2.0 detection reagent (Promega, Madison, USA) according to the manufacturer’s protocol.

[4] = Cytotoxicity of the prodrug in human cells (CellTiter-Glo 2.0), HeLa S3; assay type: cell-based; conditions: human, HeLa S3 cells; HeLa S3, 10 µM; read-out: Cytotoxicity of prodrug: HeLaS3 viability
Procedure: as §1

[5] = system: T. brucei BSF cells; experiment: Cell cycle analysis of treated trypanosomes (microscopy, flow cytometry with propidium iodide); assay type: cell-based, Trypanosoma brucei; conditions: for distribution of cell cycle stages by flow cytometry (DNA content): 1 to 16 µM, 12 h, propidium iodide
Excerpt: The inhibition of the growth of T. brucei BSF in HMI-11 medium in single micromolar EC50 values (Table 1) was somewhat surprising considering the dispensability of APRT enzymes for these cells. […] To get deeper insights into the in vivo action of ANPs on APRT enzyme we tested their cytotoxicity on wild type cells grown in HMI-11^adenine medium. In this medium, the cells rely on the activity of the APRT enzyme to produce AMP and other […]. […] To corroborate this observation, we also tested cells with induced ectopic expression of V5-tagged APRT1 in both types of media and in the presence of the selected ANPs. […] The changes in the distribution of different cell cycle stages within a population were further assessed by flow cytometry assaying the DNA content by staining the cells with propidium iodide (Fig. 8A).
BFS trypanosomes in log phase were resuspended in HMI-11 medium to a density of 2 × 10^5 cells ml^−1. Test compounds at concentrations ranging from 1 to 16 µM were added to the cell suspension followed by 12 h incubation at 37 °C. The cell cycle analysis was performed as described previously. Briefly, approximately 2 × 10^6 cells were washed with PBS and fixed in 1 ml of 70% methanol in 1 × PBS and stored at 4 °C overnight. Following a PBS wash, samples were incubated with 10 µg/ml propidium iodide and 9.6 µg/ml of RNaseA at 37 °C for 45 min. Samples were analyzed on a FACS Canto II (BD) collecting 10,000 gated events.

[6] = BSF427, HMI-11^adenine medium (50 μM adenine as sole purine)

Compound: Nc1ncnc2c1ncn2CC(COCP(=O)(O)O)COCP(=O)(O)O [compound 22, {[(2-[(Adenin-9-yl)methyl]propane-1,3-diyl)bis(oxy)]bis(methylene)}diphosphonic acid]
Ki ([1]; read-out: APRT1 Ki): 5.15 ± 0.69 µM

Compound: Nc1ncnc2c1ncn2CCC[S+]([O-])CP(=O)(O)O (centres unmarked) [4a, 5-(Adenin-9-yl)-2-oxo-2-thiapentanephosphonic acid, disodium salt]
Ki ([1]; read-out: APRT1 Ki): > 30 µM

Compound: Nc1ncnc2c1ncn2CC(COCCP(=O)(O)O)OCCP(=O)(O)O (centres unmarked) [compound 20, 4-(Adenin-9-ylmethyl)-3,6-dioxaoctane-1,8-diphosphonic acid]
Ki ([1]; read-out: APRT1 Ki): 27.7 ± 4.5 µM

Compound: CCOC(=O)[C@H](Cc1ccccc1)NP(=O)(COCC(COCP(=O)(N[C@@H](Cc1ccccc1)C(=O)OCC)N[C@@H](Cc1ccccc1)C(=O)OCC)Cn1cnc2c(N)ncnc21)N[C@@H](Cc1ccccc1)C(=O)OCC [compound 25, Tetra-(L-phenylalanineethyl ester) prodrug of {[(2-[(adenin-9-yl)methyl]propane-1,3-diyl)bis(oxy)]bis(methylene)}diphosphonic acid]
EC50 ([2]; BSF427, HMI-11 medium): 3.7 µM
viability at 10 µM [3]: 90%
viability at 10 µM [4]: 99%

Compound: Nc1ncnc2c1ncn2CCCSCP(=O)(O)O [3a, 5-(Adenin-9-yl)-2-thiapentanephosphonic acid, disodium salt]
Ki ([1]; read-out: APRT1 Ki): 10.1 ± 1.1 µM

Compound: Nc1ncnc2c1ncn2CCN(CCN(CCP(=O)(O)O)CCP(=O)(O)O)CCP(=O)(O)O [compound 17, (2-((2-((2-(Adenine-9-yl)ethyl)(2-phosphonoethyl)amino)ethyl)(2-phosphonoethyl)amino)ethyl)phosphonic acid]
Ki ([1]; read-out: APRT1 Ki): 21.3 ± 2.1 µM

Compound: Nc1ncnc2c1ncn2CCOC(CO)CP(=O)(O)O (centres unmarked) [compound 21, 9-[2-(3-Hydroxy-1-phosphonopropan-2-yloxy)ethyl]adenine]
Ki ([1]; read-out: APRT1 Ki): > 30 µM

Compound: Nc1ncnc2c1ncn2CC[S+]([O-])CCP(=O)(O)O (centres unmarked) [4b, Sodium 5-(adenin-9-yl)-3-oxo-3-thiapentanephosphonate]
Ki ([1]; APRT1 Ki): > 30 µM

Compound: CC(C)OC(=O)[C@H](Cc1ccccc1)NP(=O)(CSCCCn1cnc2c(N)ncnc21)N[C@@H](Cc1ccccc1)C(=O)OC(C)C [24a, 9-(5-(Bis((S-1-isopropoxycarbonyl-2-phenylethyl)amino)phosphoryl)-4-thiapentyl)adenine]
EC50 [2, 6]: 6.36 µM
EC50 ([2]; BSF427, HMI-11 medium): 6.16 µM
viability at 10 µM [3]: 89%
viability at 10 µM [4]: 99%
direct microscopic observation of exposed T. brucei cells [5]: problems in the cell cycle
distribution of cell cycle stages by flow cytometry (DNA content) [5]: increase in the number of cells in G1-phase

Compound: CC(C)OC(=O)[C@H](Cc1ccccc1)NP(=O)(CCSCCn1cnc2c(N)ncnc21)N[C@@H](Cc1ccccc1)C(=O)OC(C)C [24b, 9-(5-(Bis((S-1-isopropoxycarbonyl-2-phenylethyl)amino)phosphoryl)-3-thiapentyl)adenine]
EC50 [2, 6]: 6.16 µM
EC50 ([2]; BSF427, HMI-11 medium): 6.36 µM
viability at 10 µM [3]: 89%
viability at 10 µM [4]: 98%
direct microscopic observation of exposed T. brucei cells [5]: problems in the cell cycle
distribution of cell cycle stages by flow cytometry (DNA content) [5]: increase in the number of cells in G1-phase

Compound: CCOC(=O)[C@H](Cc1ccccc1)NP(=O)(CCOCC(Cn1cnc2c(N)ncnc21)OCCP(=O)(N[C@@H](Cc1ccccc1)C(=O)OCC)N[C@@H](Cc1ccccc1)C(=O)OCC)N[C@@H](Cc1ccccc1)C(=O)OCC (stereo partly drawn) [compound 26, Tetra-(L-phenylalanineethyl ester) prodrug of (2-[3-(adenin-9-yl)-2-(2-bis(hydroxyphosphoryl)ethoxy)propoxy]ethyl}phosphonic acid]
EC50 ([2]; BSF427, HMI-11 medium): 1.55 µM
viability at 10 µM [3]: 88%
viability at 10 µM [4]: 100%

Compound: Nc1ncnc2c1ncn2CCSCCP(=O)(O)O [3b, 5-(Adenin-9-yl)-3-thiapentanephosphonic acid, disodium salt]
Ki ([1]; read-out: APRT1 Ki): > 30 µM

Second part, the compound after the results:

Ki ([1]; read-out: APRT1 Ki): 3.88 ± 0.29 µM
Compound: Nc1ncnc2c1ncn2CCN(CCOCP(=O)(O)O)CCP(=O)(O)O [9d, 9-[(N-Phosphonoethyl-N-phosphonomethoxyethyl)-2-aminoethyl]adenine]

Ki ([1]; read-out: APRT1 Ki): > 30 µM
Compound: Nc1ncnc2c1ncn2CCN(CCP(=O)(O)O)CCP(=O)(O)O [9c, 9-[(N,N-(Bis-2-phosphonoethyl))-2-aminoethyl]adenine]

Ki ([1]; read-out: APRT1 Ki): 3.07 ± 0.25 µM
Compound: Nc1ncnc2c1ncn2CCN(CCOCCP(=O)(O)O)CCP(=O)(O)O [9g, 9-[(N-Phosphonoethyl-N-phosphonoethoxyethyl)-2-aminoethyl]adenine]

Ki ([1]; read-out: APRT1 Ki): > 30 µM
Compound: N#CCCN(CCn1cnc2c(N)ncnc21)CCP(=O)(O)O [9b, 9-[(N-(2-Cyanoethyl)-N-(2-phosphonoethyl))-2-aminoethyl]adenine]

Ki ([1]; read-out: APRT1 Ki): > 30 µM
Compound: Nc1ncnc2c1ncn2CCN(CCCC(=O)O)CCP(=O)(O)O [9f, 9-[(N-(Carboxypropyl)-N-(2-phosphonoethyl))-2-aminoethyl]adenine]

Ki ([1]; read-out: APRT1 Ki): 4.92 ± 0.43 µM
Compound: Nc1ncnc2c1ncn2CCN(CCNCCO)CCP(=O)(O)O [9a, 9-[(N-(2-((2-Hydroxyethyl)amino)ethyl)-N-(2-phosphonoethyl))-2-aminoethyl]adenine triethylammonium salt]
